From US20110230476A1, “PI3 KINASE INHIBITORS AND USES THEREOF” (AVILA THERAPEUTICS, INC., priority 2009, published 2011)

What was measured:
Phospho-Akt(Ser473) = experiment: Dose response in SKOV3 cells as determined by in-cell Western; assay type: cell-based; conditions: Homo sapiens, SK-OV-3; SKOV3 cells, 1 hr; read-out: pAKT Inhibition in cell Western
Protocol: Dose Response in SKOV3 Cells as Determined by in-Cell Western
Twenty four hours later the media was removed and replaced with 100 ul media containing test compound or control compound and cells were returned to the incubator for 1 hr. At the end of the hour, the media was removed and the cells were washed once with PBS, then fixed for 20 minutes at room temperature in 4% formaldehyde in PBS. The formaldehyde was removed and cells were washed 5 times for 5 minutes with 100 ul of Permeabilization Buffer (PBS+0.1% Triton X-100) at room temperature with gentle shaking. The last wash was removed and replaced with 150 ul of Odyssey Blocking Buffer (Li-Cor, Lincoln, Nebr.) and incubated for 90 minutes at room temperature with gentle shaking.
The Blocking Buffer was then replaced with 50 ul of primary antibody mix (rabbit anti-Phospho-Akt(Ser473) at 1:100 (Cell Signaling Technology, Boston, Mass.) and mouse anti-tubulin at 1:5000 (Sigma Aldrich, St. Louis, Mo.) diluted in Odyssey Blocking Buffer) and incubated overnight at room temperature with gentle shaking.
The next morning, the antibody mix was removed and the wells were washed 5 times for 5 minutes with PBS+0.1% Tween-20. The last wash was replaced with 50 ul of secondary antibody mix (goat anti-rabbit-IRDye-680 and goat anti-mouse-IRDye-800 (Li-Cor), both diluted 1:1000 in Odyssey Blocking Buffer+0.2% Tween-20) and incubated for 1 hour at room temperature with gentle shaking. The antibody mix was removed and the wells were washed 5 times for 5 minutes in PBS+0.1% Tween-20, then 1 time with ddH2O.
The plates were scanned on an Odyssey machine (Li-Cor) with a 3 mm focus offset at an intensity of 8 in both channels and the data was analyzed using the Odyssey software.

PI3Kα (p110α/p85α) = target: T1, PI3Kα (p110α/p85α) (Homo sapiens, UniProt P42336); experiment: HTRF assay, potency against active PI3Kα; assay type: biochemical; conditions: HTRF; [ATP]=50 μM, [di-C8-PIP2]=10 μM; 30 min pre-incubation; read-out: PI3Kα Inhibition
T1 construct: purchased BPS Bioscience (San Diego, Calif.) or Millipore (Billerica, Mass.)
T1 sequence (P42336 whole entry): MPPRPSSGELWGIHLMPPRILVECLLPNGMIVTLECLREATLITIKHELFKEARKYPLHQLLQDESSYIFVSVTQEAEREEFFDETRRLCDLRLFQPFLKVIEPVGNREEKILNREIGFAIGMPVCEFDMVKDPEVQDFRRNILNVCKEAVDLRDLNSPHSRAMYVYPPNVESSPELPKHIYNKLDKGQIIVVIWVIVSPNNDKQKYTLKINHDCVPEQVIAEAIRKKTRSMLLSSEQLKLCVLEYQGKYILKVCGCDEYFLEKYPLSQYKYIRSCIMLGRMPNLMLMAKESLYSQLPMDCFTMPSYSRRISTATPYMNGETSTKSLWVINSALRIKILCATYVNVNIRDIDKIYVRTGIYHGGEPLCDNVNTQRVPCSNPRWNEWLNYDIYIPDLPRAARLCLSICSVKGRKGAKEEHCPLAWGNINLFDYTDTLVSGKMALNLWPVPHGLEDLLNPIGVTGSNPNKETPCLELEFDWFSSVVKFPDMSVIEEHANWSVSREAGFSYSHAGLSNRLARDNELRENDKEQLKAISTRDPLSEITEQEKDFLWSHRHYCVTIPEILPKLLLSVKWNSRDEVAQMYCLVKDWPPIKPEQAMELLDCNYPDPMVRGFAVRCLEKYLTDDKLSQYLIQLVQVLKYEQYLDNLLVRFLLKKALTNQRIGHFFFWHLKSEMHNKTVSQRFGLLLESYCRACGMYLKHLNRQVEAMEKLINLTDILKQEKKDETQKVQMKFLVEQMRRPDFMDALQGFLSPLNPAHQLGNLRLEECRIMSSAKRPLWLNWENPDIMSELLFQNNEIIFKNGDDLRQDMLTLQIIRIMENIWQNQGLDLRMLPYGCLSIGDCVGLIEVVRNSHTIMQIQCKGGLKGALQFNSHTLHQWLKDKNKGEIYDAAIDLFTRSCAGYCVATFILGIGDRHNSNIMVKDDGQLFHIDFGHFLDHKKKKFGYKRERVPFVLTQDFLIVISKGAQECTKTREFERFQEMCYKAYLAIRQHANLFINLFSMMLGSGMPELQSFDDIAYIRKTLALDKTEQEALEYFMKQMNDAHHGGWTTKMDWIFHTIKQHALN
T1 sequence (P27986 whole entry partner): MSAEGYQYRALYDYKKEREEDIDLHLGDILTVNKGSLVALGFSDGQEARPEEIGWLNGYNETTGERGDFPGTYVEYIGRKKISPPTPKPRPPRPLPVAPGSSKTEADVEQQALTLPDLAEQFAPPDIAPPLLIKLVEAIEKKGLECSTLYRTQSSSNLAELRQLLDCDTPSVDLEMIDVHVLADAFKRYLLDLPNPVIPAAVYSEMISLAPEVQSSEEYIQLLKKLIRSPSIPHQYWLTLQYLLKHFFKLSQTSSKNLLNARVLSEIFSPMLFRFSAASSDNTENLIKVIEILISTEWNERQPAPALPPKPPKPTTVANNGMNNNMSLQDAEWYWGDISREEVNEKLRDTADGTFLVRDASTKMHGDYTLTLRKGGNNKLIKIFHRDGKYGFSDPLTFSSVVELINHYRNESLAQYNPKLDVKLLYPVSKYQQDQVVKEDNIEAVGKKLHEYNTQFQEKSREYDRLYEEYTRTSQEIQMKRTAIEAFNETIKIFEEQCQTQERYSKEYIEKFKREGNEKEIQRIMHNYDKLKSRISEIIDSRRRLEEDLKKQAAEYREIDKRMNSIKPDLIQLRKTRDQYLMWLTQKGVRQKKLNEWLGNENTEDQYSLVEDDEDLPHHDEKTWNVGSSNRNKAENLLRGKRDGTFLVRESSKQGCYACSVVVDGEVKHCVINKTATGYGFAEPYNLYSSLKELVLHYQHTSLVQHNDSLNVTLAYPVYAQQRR
Procedure, shortened: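 Active p110/p85α lipid kinase reactions were started with ATP and run 30-60 minutes at 25 °C, then stopped and developed with HTRF detection mix. HTRF ratio converted to % inhibition against ±enzyme controls; IC50 from log[inhibitor] vs response, variable slope.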

| Compound | EC50 (Phospho-Akt(Ser473)) | IC50 (PI3Kα (p110α/p85α)) |
| --- | --- | --- |
| CNC(=O)Nc1ccc(-c2nc(N3CCOCC3)c3cnn(C4CCN(C(=O)OC)CC4)c3n2)cc1 [VII-ref] | 10 to 100 nM | – |
| COc1c(OCCOCCNS(C)(=O)=O)ccc2c1N=C(NC(=O)c1cccnc1)N1CCN=C21 [IX-ref] | 10 to 100 nM | – |
| Nc1ncnc2c1c(-c1cnc3[nH]ccc3c1)nn2C1CCCC1 [XI-ref] | 10 to 100 nM | – |
| CC(C)=CC(=O)C(=O)N1CCN(C2CCN(c3cc(-c4cnc(N)nc4)nc(N4CCOCC4)c3)CC2)CC1 [XII-35, 1-(4-(1-(2-(2-aminopyrimidin-5-yl)-6-morpholinopyridin-4-yl)piperidin-4-yl)piperazin-1-yl)-4-methylpent-3-ene-1,2-dione] | – | 100 to 1000 nM |
| CC(C)CC(=O)C(=O)N1CCN(c2ccc(-c3cc(-c4cnc(N)nc4)nc(N4CCOCC4)c3)cn2)CC1 [XII-29, 1-(4-(2′-(2-aminopyrimidin-5-yl)-6′-morpholino-3,4′-bipyridin-6-yl)piperazin-1-yl)-4-methylpentane-1,2-dione] | – | 100 to 1000 nM |
| C=CC(=O)Nc1ccc(CN2CCC(n3ncc4c(N5CCOCC5)nc(-c5ccc(NC(=O)NC)cc5)nc43)CC2)cc1 [VII-5, N-(4-((4-(6-(4-(3-methylureido)phenyl)-4-morpholino-1H-pyrazolo[3,4-d]pyrimidin-1-yl)piperidin-1-yl)methyl)phenyl)acrylamide] | – | 100 to 1000 nM |
| C/C(=C\c1ncc[nH]1)C(=O)CCC(=O)N1CCN(Cc2cc3nc(-c4cccc5[nH]ncc45)nc(N4CCOCC4)c3s2)CC1 [II-a-170, (E)-1-(4-((2-(1H-indazol-4-yl)-4-morpholinothieno[3,2-d]pyrimidin-6-yl)methyl)piperazin-1-yl)-6-(1H-imidazol-2-yl)-5-methylhex-5-ene-1,4-dione] | – | 100 to 1000 nM |
| C/C=C/C(=O)CCC(=O)NCc1ccc(OC)c(-n2c(CSc3ncnc4[nH]cnc34)nc3cccc(Cl)c3c2=O)c1 [I-6, (E)-N-(3-(2-((9H-purin-6-ylthio)methyl)-5-chloro-4-oxoquinazolin-3(4H)-yl)-4-methoxybenzyl)-4-oxohept-5-enamide] | – | > 1000 nM |
| CC(C)=CC(=O)c1ccc(CCNC(=O)c2cc(-c3cnc(N)cc3C(F)(F)F)nc(N3CCOCC3)c2)cc1 [XII-9, 6′-amino-N-(4-(3-methylbut-2-enoyl)phenethyl)-6-morpholino-4′-(trifluoromethyl)-2,3′-bipyridine-4-carboxamide] | – | > 1000 nM |
| C=CC(=O)Nc1ccc(CCNC(=O)c2cc3nc(-c4cccc5[nH]ncc45)nc(N4CC5(COC5)C4)c3s2)cc1 [II-a-151, N-(4-acrylamidophenethyl)-2-(1H-indazol-4-yl)-4-(2-oxa-6-azaspiro[3.3]heptan-6-yl)thieno[3,2-d]pyrimidine-6-carboxamide] | – | > 1000 nM |
| CC(C)=CC(=O)CCCC(=O)N1CCN(c2cc(-c3cnc(N)nc3)nc(N3CCOCC3)c2)CC1 [XII-30, 1-(4-(2-(2-aminopyrimidin-5-yl)-6-morpholinopyridin-4-yl)piperazin-1-yl)-7-methyloct-6-ene-1,5-dione] | – | 100 to 1000 nM |
| CC(C)=CC(=O)C1(C(=O)N2CCC(C#Cc3cc(-c4cnc(N)nc4)nc(N4CCOCC4)c3)CC2)CC1 [XII-33, 1-(1-(4-((2-(2-aminopyrimidin-5-yl)-6-morpholinopyridin-4-yl)ethynyl)piperidine-1-carbonyl)cyclopropyl)-3-methylbut-2-en-1-one] | – | 100 to 1000 nM |
| C/C=C/C(=O)CCC(=O)N1CCC2(CC1)CN(c1cc(-c3cnc(N)nc3)nc(N3CCOCC3)c1)C2 [XII-40, (E)-1-(2-(2-(2-aminopyrimidin-5-yl)-6-morpholinopyridin-4-yl)-2,7-diazaspiro[3.5]nonan-7-yl)hept-5-ene-1,4-dione] | – | 100 to 1000 nM |
| CC(C)=CC(=O)CCCCC#Cc1cc(-c2cnc(N)cc2C(F)(F)F)nc(N2CCOCC2)c1 [XII-8, 10-(6′-amino-6-morpholino-4′-(trifluoromethyl)-2,3′-bipyridin-4-yl)-2-methyldec-2-en-9-yn-4-one] | – | > 1000 nM |
| C/C=C/C(=O)CCCC(=O)NCC(=O)Nc1ccc2c(c1)N(c1nc3c(s1)C(=O)NC(C)(C)C3)CCO2 [VI-25] | – | > 1000 nM |
| C=CC(=O)NCC12CCC(c3cc4nc(-c5cccc6[nH]ncc56)nc(N5CCOCC5)c4s3)(CC1)OC2 [II-a-153, N-((1-(2-(1H-indazol-4-yl)-4-morpholinothieno[3,2-d]pyrimidin-6-yl)-2-oxabicyclo[2.2.2]octan-4-yl)methyl)acrylamide] | – | 100 to 1000 nM |
| C=CC(=O)N1CCN(c2ccc(-c3ccnc4ccc(/C=C5\SC(=O)NC5=O)cc34)cn2)CC1 [V-4, (Z)-5-((4-(6-(4-acryloylpiperazin-1-yl)pyridin-3-yl)quinolin-6-yl)methylene)thiazolidine-2,4-dione] | – | 10 to 100 nM |
| O=C(/C=C/c1ncc[nH]1)CCC(=O)N1CCN(Cc2cc3nc(-c4cccc5[nH]ncc45)nc(N4CCOCC4)c3s2)CC1 [II-a-125, (E)-1-(4-((2-(1H-indazol-4-yl)-4-morpholinothieno[3,2-d]pyrimidin-6-yl)methyl)piperazin-1-yl)-6-(1H-imidazol-2-yl)hex-5-ene-1,4-dione] | – | 100 to 1000 nM |
| CC(C)=CC(=O)C(=O)N1CCC(C#Cc2cc(-c3cnc(N)nc3)nc(N3CCOCC3)c2)CC1 [XII-32, 1-(4-((2-(2-aminopyrimidin-5-yl)-6-morpholinopyridin-4-yl)ethynyl)piperidin-1-yl)-4-methylpent-3-ene-1,2-dione] | – | 100 to 1000 nM |
| C/C=C/C(=O)OCC(=O)N1CCN(Cc2cc3nc(-c4cccc5[nH]ncc45)nc(N4CCOCC4)c3s2)CC1 [II-a-146, (E)-2-(4-((2-(1H-indazol-4-yl)-4-morpholinothieno[3,2-d]pyrimidin-6-yl)methyl)piperazin-1-yl)-2-oxoethyl but-2-enoate] | – | > 1000 nM |

Second part, the molecule after the results:

| EC50 (Phospho-Akt(Ser473)) | IC50 (PI3Kα (p110α/p85α)) | Compound |
| --- | --- | --- |
| – | 10 to 100 nM | C=CC(=O)N1CCN(c2ccc(-c3ccnc4ccc(/C=C5\SC(=O)NC5=O)cc34)cc2)CC1 [V-11, (Z)-5-((4-(4-(4-acryloylpiperazin-1-yl)phenyl)quinolin-6-yl)methylene)thiazolidine-2,4-dione] |
| – | < 10 nM | C/C=C/C(=O)CCC(=O)N1Cc2ccc(-c3cc4nc(-c5cccc(O)c5)nc(N5CCOCC5)c4s3)cc2C1 [II-a-68, (E)-1-(5-(2-(3-hydroxyphenyl)-4-morpholinothieno[3,2-d]pyrimidin-6-yl)isoindolin-2-yl)hept-5-ene-1,4-dione] |
| – | < 10 nM | C/C=C/C(=O)CCC(=O)N1CCN(c2ccc(-c3cc4nc(-c5cccc(O)c5)nc(N5CCOCC5)c4s3)cc2)CC1 [II-a-102, (E)-1-(4-(4-(2-(3-hydroxyphenyl)-4-morpholinothieno[3,2-d]pyrimidin-6-yl)phenyl)piperazin-1-yl)hept-5-ene-1,4-dione] |
| – | 10 to 100 nM | C=CC(=O)N1CCN(Cc2cc3nc(-c4cccc5[nH]ncc45)nc(N4CCOCC4)c3s2)CC1 [II-a-2, 1-(4-((2-(1H-indazol-4-yl)-4-morpholinothieno[3,2-d]pyrimidin-6-yl)methyl)piperazin-1-yl)prop-2-en-1-one] |
| – | 10 to 100 nM | C=CC(=O)N1CCC(C#Cc2cc3nc(-c4cccc(O)c4)nc(N4CCOCC4)c3s2)CC1 [II-a-70, 1-(4-((2-(3-hydroxyphenyl)-4-morpholinothieno[3,2-d]pyrimidin-6-yl)ethynyl)piperidin-1-yl)prop-2-en-1-one] |
| – | < 10 nM | C/C=C/C(=O)CCC(=O)NC1CCN(c2ccc(-c3cc4nc(-c5cccc(O)c5)nc(N5CCOCC5)c4s3)cc2)CC1 [II-a-109, (E)-N-(1-(4-(2-(3-hydroxyphenyl)-4-morpholinothieno[3,2-d]pyrimidin-6-yl)phenyl)piperidin-4-yl)-4-oxohept-5-enamide] |
| – | 10 to 100 nM | CC(C)=CC(=O)C(=O)N1CCN(c2ccc(-c3cc(-c4cnc(N)nc4)nc(N4CCOCC4)c3)cc2)CC1 [XII-24, 1-(4-(4-(2-(2-aminopyrimidin-5-yl)-6-morpholinopyridin-4-yl)phenyl)piperazin-1-yl)-4-methylpent-3-ene-1,2-dione] |
| – | 10 to 100 nM | C=CC(=O)NCCOCCOc1ccc2c(c1OC)N=C(NC(=O)c1cccnc1)N1CCN=C21 [IX-1, N-(8-(2-(2-acrylamidoethoxy)ethoxy)-7-methoxy-2,3-dihydroimidazo[1,2-c]quinazolin-5-yl)nicotinamide] |
| – | < 10 nM | C/C=C/C(=O)CCC(=O)N1CCC(O)(C#Cc2cc3nc(-c4cccc(O)c4)nc(N4CCOCC4)c3s2)CC1 [II-a-104, (E)-1-(4-hydroxy-4-((2-(3-hydroxyphenyl)-4-morpholinothieno[3,2-d]pyrimidin-6-yl)ethynyl)piperidin-1-yl)hept-5-ene-1,4-dione] |
| – | < 10 nM | C/C=C/C(=O)CCC(=O)N1CCc2ccc(-c3cc4nc(-c5cccc(O)c5)nc(N5CCOCC5)c4s3)cc2C1 [II-a-67, (E)-1-(7-(2-(3-hydroxyphenyl)-4-morpholinothieno[3,2-d]pyrimidin-6-yl)-3,4-dihydroisoquinolin-2(1H)-yl)hept-5-ene-1,4-dione] |
